Here are results for 34 molecules from patent US10875837B2, “Inhibitors of the fibroblast growth factor receptor” (BLUEPRINT MEDICINES CORPORATION, priority 2013, dated 2020).

For one experiment, the target named is T1, wild type FGFR-4 (Homo sapiens, UniProt P22455).
T1 construct: purchased Carna Biosciences, Inc
Kind of experiment: FGFR-4 wild type assay at Km (Caliper electrophoretic mobility shift). The experiment is classed as biochemical. The settings on record: wild type FGFR-4, 400 uM ATP, 25 C, 90 minutes; read-out: INH-FGFR4. How it is done:
Biochemical Activity Assessment In order to assess the activity of chemical compounds against the relevant kinase of interest, the Caliper LifeSciences electrophoretic mobility shift technology platform is utilized. Fluorescently labeled substrate peptide is incubated in the presence dosed levels of compounds, a set concentration of kinase and of ATP, so that a reflective proportion of the peptide is phosphorylated. At the end of the reaction, the mix of phosphorylated (product) and non-phosphorylated (substrate) peptides are passed through the microfluidic system of the Caliper LabChip® EZ Reader II, under an applied potential difference. The presence of the phosphate group on the product peptide provides a difference in mass and charge between the product peptide and the substrate peptide, resulting in a separation of the substrate and product pools in the sample. As the pools pass the LEDS within the instrument, these pools are detected and resolved as separate peaks. The ratio between these peaks therefore reflects the activity of the chemical matter at that concentration in that well, under those conditions.
FGFR-4 wild type assay at Km: In each well of a 384-well plate, 0.5 ng/ul of wild type FGFR-4 (Carna Biosciences, Inc.) was incubated in a total of 12.5 ul of buffer (100 mM HEPES pH 7.5, 0.015% Brij 35, 10 mM MgCl2, 1 mM DTT) with 1 uM CSKtide (5-FAM-KKKKEEIYFFFG-NH2) and 400 uM ATP at 25 C for 90 minutes in the presence or absence of a dosed concentration series of compound (1% DMSO final concentration). The reaction was stopped by the addition of 70 ul of Stop buffer (100 mM HEPES pH 7.5, 0.015% Brij 35, 35 mM EDTA and 0.2% of Coating Reagent 3 (Caliper Lifesciences)). The plate was then read on a Caliper LabChip® EZ Reader II (protocol settings: −1.9 psi, upstream voltage −700, downstream voltage −3000, post sample sip 35 s).

For experiment [1], the system named is pMAPK (Thr202/Tyr204) in MDA-MB453 or DMS 114 cells. Kind of experiment: Detection of pMAPK (Thr202/Tyr204) using Alpha ELISA (pERK alphaLISA). The experiment is classed as cell-based. The settings on record: 1 hr incubation with compound; cell line not given (MDA-MB453 or DMS 114). How it is done:
Detection of pMAPK (Thr202/Tyr204) Using Alpha ELISA
MDA-MB453 or DMS 114 cells were plated in 96-well cell culture plates at a density of 1×10^5 cells or 3×10^4 cells, respectively. Cells were allowed to attach, and growth media was replaced with serum free media. Compounds were added at the indicated concentrations. Following 1 hr incubation in the presence of compound, cells were collected. For the DMS 114 cells, 100 ng/mL FGF2 was added for 10 min prior to cell collection. Cell lysates were prepared and processed according to manufacturer instruction (AlphaScreen® SureFire™ Phospho-ERK 1/2 Kit (Perkin Elmer).
For orientation: In an ELISA, binding on a coated surface is turned into a signal by an enzyme label.

T1 sequence (P22455 22-802): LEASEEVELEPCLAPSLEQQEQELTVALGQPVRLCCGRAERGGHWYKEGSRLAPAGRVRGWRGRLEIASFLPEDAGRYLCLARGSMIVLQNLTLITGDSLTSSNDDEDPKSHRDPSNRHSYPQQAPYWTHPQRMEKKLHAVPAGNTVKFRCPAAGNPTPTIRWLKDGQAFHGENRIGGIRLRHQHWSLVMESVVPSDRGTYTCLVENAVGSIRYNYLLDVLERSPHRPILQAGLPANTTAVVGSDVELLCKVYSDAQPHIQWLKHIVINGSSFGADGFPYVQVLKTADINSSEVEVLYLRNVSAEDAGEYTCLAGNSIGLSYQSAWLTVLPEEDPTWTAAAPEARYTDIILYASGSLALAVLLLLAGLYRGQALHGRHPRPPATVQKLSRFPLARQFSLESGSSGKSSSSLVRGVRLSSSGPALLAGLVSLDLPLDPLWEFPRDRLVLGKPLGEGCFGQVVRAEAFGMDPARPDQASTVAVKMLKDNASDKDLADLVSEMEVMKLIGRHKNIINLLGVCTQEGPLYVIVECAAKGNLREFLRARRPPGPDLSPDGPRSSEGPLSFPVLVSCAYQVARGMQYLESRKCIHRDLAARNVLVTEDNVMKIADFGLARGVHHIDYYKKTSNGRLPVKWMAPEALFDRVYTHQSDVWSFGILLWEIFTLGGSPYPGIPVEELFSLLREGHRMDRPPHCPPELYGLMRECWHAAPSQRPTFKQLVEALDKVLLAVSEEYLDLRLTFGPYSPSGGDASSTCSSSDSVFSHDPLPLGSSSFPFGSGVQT

For the molecule `C=CC(=O)N[C@H]1CN(C(=O)CN)C[C@H]1Nc1ncc2cc(-c3c(Cl)c(OC)cc(OC)c3Cl)ccc2n1` (racemic) [Compound 74], the IC50 at wild type FGFR-4 was in the range of 0.01 to 0.1 µM; in experiment [1], 0.1 to 1 µM.

As for `C=CC(=O)N[C@H]1CN(C(=O)OC(C)(C)C)C[C@H]1Nc1ncc2cc(-c3c(Cl)c(OC)cc(OC)c3Cl)ccc2n1` (racemic) [Compound 90], the IC50 at wild type FGFR-4 is 0.01 to 0.1 µM; in experiment [1] it was 0.1 to 1 µM.

On to `C=CC(=O)N[C@H]1CCC[C@H]1Nc1ncc2cc(-c3c(Cl)c(OC)cc(OC)c3Cl)ccc2n1` [Compound 24], for which the IC50 (on wild type FGFR-4; in experiment [1]) was 0.01 to 0.1 µM in each case.

With `C=CC(=O)N[C@@H]1COC[C@@H]1Nc1ncc2cc(-c3c(Cl)c(OC)cc(OC)c3Cl)ccc2n1` [Compound 26], the IC50 on wild type FGFR-4 is 0.01 to 0.1 µM; in experiment [1], 0.1 to 1 µM.

`C=CC(=O)NC1COCC1Nc1ncc2cc(-c3c(Cl)c(OC)cc(OC)c3Cl)ccc2n1` (centres unmarked) [Compound 28]: the figures for the IC50 (on wild type FGFR-4; in experiment [1]) were less than 0.01 µM and 0.01 to 0.1 µM, respectively.

Regarding `C=CC(=O)N[C@H]1COC[C@H]1Nc1ncc2cc(-c3c(Cl)c(OC)cc(OC)c3Cl)cnc2n1` [Compound 29], the IC50 on wild type FGFR-4 was 0.01 to 0.1 µM; in experiment [1], less than 0.01 µM.

As to `C=CC(=O)N[C@H]1C[C@@H]2C[C@@H]2[C@H]1Nc1ncc2cc(-c3c(Cl)c(OC)cc(OC)c3Cl)ccc2n1` [Compound 32, N-((1S,2R,3S,5S)-2-((6-(2,6-dichloro-3,5-dimethoxyphenyl)quinazolin-2-yl)amino)bicyclo[3.1.0]hexan-3-yl)acrylamide], the IC50 (at wild type FGFR-4; in experiment [1]) was less than 0.01 µM throughout.

As for `C=CC(=O)N[C@H]1CCCC[C@H]1Nc1ncc2cc(-c3c(Cl)c(OC)cc(OC)c3Cl)ccc2n1` [Compound 34, N-((1S,2R)-2-((6-(2,6-dichloro-3,5-dimethoxyphenyl)quinazolin-2-yl)amino)cyclohexyl)acrylamide], the IC50 (at wild type FGFR-4; in experiment [1]) was 0.01 to 0.1 µM throughout.

As for `C=CC(=O)N[C@H]1CCOC[C@H]1Nc1ncc2cc(-c3c(Cl)c(OC)cc(OC)c3Cl)ccc2n1` [Compound 40, N-((3S,4S)-3-((6-(2,6-dichloro-3,5-dimethoxyphenyl)quinazolin-2-yl)amino)tetrahydro-2H-pyran-4-yl)acrylamide], the IC50 (on wild type FGFR-4; in experiment [1]) was less than 0.01 µM throughout.

Take `C=CC(=O)N[C@H]1COCC[C@H]1Nc1ncc2cc(-c3c(Cl)c(OC)cc(OC)c3Cl)ccc2n1` [Compound 41]: the IC50 at wild type FGFR-4 was 0.01 to 0.1 µM; in experiment [1] it was 0.1 to 1 µM.

With `C=CC(=O)N[C@H]1CCOC[C@H]1Nc1ncc2cc(-c3c(Cl)c(OC)cc(OC)c3Cl)cnc2n1` [Compound 44], the IC50 (at wild type FGFR-4; in experiment [1]) was 0.01 to 0.1 µM throughout.

`C=CC(=O)N[C@H]1CCC[C@H]1Nc1ncc2cc(-c3c(Cl)c(OC)cc(OC)c3Cl)cc(F)c2n1` [Compound 45]: the IC50 (on wild type FGFR-4; in experiment [1]) was 0.01 to 0.1 µM in each case.

`C=CC(=O)N[C@H]1COC[C@H]1Nc1ncc2cc(-c3c(Cl)c(OC)cc(OC)c3Cl)cc(F)c2n1` [Compound 46]: the IC50 (on wild type FGFR-4; in experiment [1]) was less than 0.01 µM in each case.

Take `C=CC(=O)N[C@H]1CCOC[C@H]1Nc1ncc2cc(-c3c(Cl)c(OC)cc(OC)c3Cl)c(F)cc2n1` [Compound 51]: the IC50 (on wild type FGFR-4; in experiment [1]) was less than 0.01 µM throughout.

Take `C=CC(=O)N[C@H]1CCOC[C@H]1Nc1ncc2cc(-c3c(Cl)c(OC)cc(OC)c3Cl)cc(F)c2n1` [Compound 52]: the IC50 (at wild type FGFR-4; in experiment [1]) was less than 0.01 µM in each case.

For the molecule `C=CC(=O)N[C@H]1COC[C@H]1Nc1ncc2cc(-c3c(Cl)c(OC)cc(OC)c3Cl)cc(Cl)c2n1` [Compound 54], the IC50 (on wild type FGFR-4; in experiment [1]) was less than 0.01 µM in each case.

For the molecule `C=CC(=O)N[C@H]1COC[C@H]1Nc1ncc2cc(-c3c(Cl)c(OC)cc(OC)c3Cl)c(Cl)cc2n1` [Compound 55], the IC50 (at wild type FGFR-4; in experiment [1]) was less than 0.01 µM in each case.

`C=CC(=O)N[C@H]1CN(C(C)=O)C[C@H]1Nc1ncc2cc(-c3c(Cl)c(OC)cc(OC)c3Cl)ccc2n1` [Compound 56, N-((3S,4R)-1-acetyl-4-((6-(2,6-dichloro-3,5-dimethoxyphenyl)quinazolin-2-yl)amino)pyrrolidin-3-yl)acrylamide]: the IC50 (at wild type FGFR-4; in experiment [1]) was less than 0.01 µM each time.

Regarding `C=CC(=O)NC1CN(C(C)=O)CC1Nc1ncc2cc(-c3c(Cl)c(OC)cc(OC)c3Cl)ccc2n1` (centres unmarked) [Compound 58], the IC50 on wild type FGFR-4 was less than 0.01 µM; in experiment [1], 0.01 to 0.1 µM.

Take `C=CC(=O)N[C@H]1CCC[C@H]1Nc1ncc2cc(-c3c(Cl)c(OC)cc(OC)c3Cl)c(=O)n(CC)c2n1` [Compound 62, N-((1S,2R)-2-((6-(2,6-dichloro-3,5-dimethoxyphenyl)-8-ethyl-7-oxo-7,8-dihydropyrido[2,3-d]pyrimidin-2-yl)amino)cyclopentyl)acrylamide]: the values for the IC50 (on wild type FGFR-4; in experiment [1]) were less than 0.01 µM and 0.01 to 0.1 µM, respectively.

In the case of `C=CC(=O)N[C@H]1CCC[C@H]1Nc1ncc2nc(-c3c(Cl)c(OC)cc(OC)c3Cl)c(=O)n(CC)c2n1` [Compound 63], the values for the IC50 (at wild type FGFR-4; in experiment [1]) were 0.01 to 0.1 µM and 0.1 to 1 µM, respectively.

For `C=CC(=O)N[C@H]1CCOC[C@H]1Nc1cc2c(cn1)cc(-c1c(Cl)c(OC)cc(OC)c1Cl)c(=O)n2C` [Compound 64], the IC50 (at wild type FGFR-4; in experiment [1]) was less than 0.01 µM throughout.

Take `C=CC(=O)NC1CN(C(=O)CO)CC1Nc1ncc2cc(-c3c(Cl)c(OC)cc(OC)c3Cl)ccc2n1` (centres unmarked) [Compound 75]: the figures for the IC50 (on wild type FGFR-4; in experiment [1]) were less than 0.01 µM and 0.01 to 0.1 µM, respectively.

Consider `C=CC(=O)N[C@H]1CN(C(=O)CO)C[C@H]1Nc1ncc2cc(-c3c(Cl)c(OC)cc(OC)c3Cl)ccc2n1` [Compound 76], for which the IC50 at wild type FGFR-4 is less than 0.01 µM; in experiment [1], 0.01 to 0.1 µM.

Consider `C=CC(=O)N[C@H]1CCCC[C@H]1Nc1ncc2cc(-c3c(Cl)c(OC)cc(OC)c3Cl)c(=O)n(CC)c2n1` [Compound 77], for which the IC50 (on wild type FGFR-4; in experiment [1]) was 0.01 to 0.1 µM in each case.

`C=CC(=O)N[C@H]1CN(C(=O)C2CC2)C[C@H]1Nc1ncc2cc(-c3c(Cl)c(OC)cc(OC)c3Cl)ccc2n1` [Compound 80]: the IC50 (on wild type FGFR-4; in experiment [1]) was less than 0.01 µM in each case.

On to `C=CC(=O)N[C@H]1C[C@@H](C(=O)N(C)C)C[C@H]1Nc1ncc2cc(-c3c(Cl)c(OC)cc(OC)c3Cl)ccc2n1` [Compound 81, (1 S,3S,4R)-3-acrylamido-4-((6-(2,6-dichloro-3,5-dimethoxyphenyl)quinazolin-2-yl)amino)-N,N-dimethylcyclopentanecarboxamide], for which the IC50 at wild type FGFR-4 was 0.01 to 0.1 µM.

As for `C=CC(=O)N[C@H]1C[C@H](C(=O)N(C)C)C[C@H]1Nc1ncc2cc(-c3c(Cl)c(OC)cc(OC)c3Cl)ccc2n1` [Compound 82, (1R,3S,4R)-3-acrylamido-4-((6-(2,6-dichloro-3,5-dimethoxyphenyl)quinazolin-2-yl)amino)-N,N-dimethylcyclopentane-1-carboxamide], on wild type FGFR-4, the IC50 was greater than 1 µM.

Turning to `C=CC(=O)N[C@H]1CN(C(=O)NCC)C[C@H]1Nc1ncc2cc(-c3c(Cl)c(OC)cc(OC)c3Cl)ccc2n1` [Compound 83, (3S,4R)-3-acrylamido-4-((6-(2,6-dichloro-3,5-dimethoxyphenyl)quinazolin-2-yl)amino)-N-ethylpyrrolidine-1-carboxamide], the IC50 (at wild type FGFR-4; in experiment [1]) was less than 0.01 µM each time.

As for `C=CC(=O)N[C@H]1CN(C(=O)OCC)C[C@H]1Nc1ncc2cc(-c3c(Cl)c(OC)cc(OC)c3Cl)ccc2n1` [Compound 84], the IC50 was less than 0.01 µM on wild type FGFR-4 and 0.01 to 0.1 µM in experiment [1].

For the molecule `C=CC(=O)NC1CN(C(=O)COC)CC1Nc1ncc2cc(-c3c(Cl)c(OC)cc(OC)c3Cl)ccc2n1` (centres unmarked) [Compound 85], the IC50 on wild type FGFR-4 was less than 0.01 µM; in experiment [1], 0.01 to 0.1 µM.

For `C=CC(=O)N[C@H]1CN(C(=O)COC)C[C@H]1Nc1ncc2cc(-c3c(Cl)c(OC)cc(OC)c3Cl)ccc2n1` [Compound 86], the IC50 (at wild type FGFR-4; in experiment [1]) was less than 0.01 µM throughout.

For `C=CC(=O)NC1CN(C(=O)CN(C)C)CC1Nc1ncc2cc(-c3c(Cl)c(OC)cc(OC)c3Cl)ccc2n1` (centres unmarked) [Compound 88], the IC50 was less than 0.01 µM at wild type FGFR-4 and 0.01 to 0.1 µM in experiment [1].

`C=CC(=O)N[C@H]1CCN(C(=O)OC(C)(C)C)C[C@H]1Nc1ncc2cc(-c3c(Cl)c(OC)cc(OC)c3Cl)ccc2n1` [Compound 92]: the IC50 at wild type FGFR-4 is greater than 1 µM.
